These results are taken from patent US11365194B2, “Analgesic drug using PAC1 receptor antagonistic drug” (KAGOSHIMA UNIVERSITY, priority 2017, dated 2022).

Structures are written as SMILES.

In assay [1] the test system is mechanical allodynia induced by spinal nerve injury. The experiment in a line: Spinal nerve ligation (SNL) model, repeated intraperitoneal administration, mechanical allodynia. Particulars: for suppression of the onset of mechanical allodynia: 30 mg/kg i.p. before ligation and once a day for 7 days. In kind it is in vivo, mouse. On the procedure: (§1) Male ddY mice (6 to 12 weeks old) were used, and the threshold to a mechanical stimulus was evaluated by the vonFrey test. Specifically, the 50% withdrawal reflex threshold (Threshold) was calculated in accordance with the method of Chaplan et al. (Chaplan et al., J. Neurosci. Meth. 53, 55-63, 1994). Each compound was dissolved in 99.7% DMSO, and then the resulting solution was diluted with an artificial cerebrospinal fluid for preparation (final concentration of DMSO was 0.2%).
Spinal nerve ligation (SNL) models in which the fourth lumbar cord spinal nerves of male ddY (6 to 12 weeks old) were ligated with silk thread were used. A solvent (VEH: 10% DMSO-containing saline). PA-8, the compound 2j or the compound 20 was intraperitoneally administered (30 mg/kg) 5 to 10 minutes before the ligation, and once a day for 7 days thereafter. The method of causing a mechanical stimulus is the same as that of Example 5, and data from the first day after the ligation (D1) are data 1 hour after the administration of VEH or the drugs.

In assay [2] the test system is spontaneous pain-like behavior induced by PACAP intrathecal administration. The experiment in a line: Spontaneous pain-like behavior induced by PACAP intrathecal administration. In kind it is in vivo, mouse. To be noted: for suppression of PACAP-induced spontaneous pain-like behavior: simultaneous i.t. with PACAP (100 pmol), counted for 30 minutes. As to the method: When PACAP (100 pmol/5 L) is intrathecally administered to a mouse in a single dose (single i.t. injection), spontaneous pain-like behavior in which the mouse licks or bites the rear half of the body occurs about 5 minutes after the administration (and continues for several hours) (Ohnou et al. J. Pharmacol. Sci. 130, 194-203, 2016). […] Male ddY mice (6 to 12 weeks old) were used, and the behaviors were taken on video. The number of times of spontaneous pain-like behaviors for 30 minutes after the administration was counted.

In assay [3] the target is T1, mouse PAC receptor-expressing CHO cell (PAC1/CHO cell) (Mus musculus, UniProt P70205).
T1 construct: expressed in transfected cells; host or cells: CHO cells
T1 sequence (P70205 21-496): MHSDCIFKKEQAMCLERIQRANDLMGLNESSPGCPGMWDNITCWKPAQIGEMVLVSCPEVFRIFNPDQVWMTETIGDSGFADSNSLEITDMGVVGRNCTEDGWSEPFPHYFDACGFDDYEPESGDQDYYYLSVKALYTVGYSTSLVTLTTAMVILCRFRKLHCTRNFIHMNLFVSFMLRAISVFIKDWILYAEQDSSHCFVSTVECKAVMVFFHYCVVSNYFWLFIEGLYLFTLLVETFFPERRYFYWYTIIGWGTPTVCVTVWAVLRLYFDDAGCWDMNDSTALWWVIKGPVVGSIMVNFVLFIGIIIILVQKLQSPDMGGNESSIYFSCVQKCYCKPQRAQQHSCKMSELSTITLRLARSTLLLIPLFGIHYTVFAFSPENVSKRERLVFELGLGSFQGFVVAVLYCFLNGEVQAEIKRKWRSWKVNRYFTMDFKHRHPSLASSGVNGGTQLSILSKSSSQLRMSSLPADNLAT
The assay can be described thus: CREB phosphorylation by PACAP stimulus, Western blot, PAC1/CHO cell. In kind it is cell-based. To be noted: for suppression of CREB phosphorylation by PACAP (1 nM): PAC1/CHO cell, compound 10 μM to 10 nM, 30 minutes before 1 nM PACAP; for effect of suppressing CREB phosphorylation compared with basic compound: at 1 nM, 2o versus PA-8, 3d versus PA-9, FIG. 3. On the procedure: The effect of each compound on the phosphorylation of CREB (cAMP-responsive element-binding protein) produced by a PACAP stimulus was examined by Western blot analysis using an anti-phosphorylated CREB (pCREB) antibody with a mouse PAC receptor-expressing CHO cell (PAC1/CHO cell) and a mouse VPAC1 receptor-expressing CHO cell (VPAC1/CHO cell).
Specifically, treatment with a compound (PA-8, PA-9, compounds 2j, 20 and 3d) at 10 μM to 10 nM or a solvent therefor (VEH: 0.1% DMSO-containing phosphate buffer solution) was performed for 30 minutes, 1 nM PACAP was then added, and protein was recovered within 30 minutes after a PACAP stimulus.

Assay [4] has as its system cold allodynia induced by oxaliplatin. The assay can be described thus: Cold allodynia induced by oxaliplatin, drug on fourth day after oxaliplatin (acetone test). It is filed as in vivo, mouse. To be noted: 10 mg/kg, single oral administration; for suppression of cold allodynia by oxaliplatin: fourth day after oxaliplatin. As to the method: Oxaliplatin was dissolved in 5% glucose-containing saline and intraperitoneally administered at a dose of 2 mg/kg. A drug was administered on the fourth day after oxaliplatin administration. Male ddY mice (6 to 12 weeks old) were used. The axis of ordinates is the duration of the behavior of licking and paw waving after the application of an acetone drop (10 L) to the footpad of a hind paw.

Assay [5] concerns mechanical allodynia induced by PACAP intrathecal administration. The experiment in a line: Mechanical allodynia induced by PACAP intrathecal administration (von Frey test). To be noted: simultaneous i.t. It is filed as in vivo, mouse. On the procedure:
When single i.t. administration of PACAP (100 pmol/5 L) to mouse was performed, mechanical stimulus sensitive phenomenon (mechanical allodynia) occurred over a long period of time (for at least three months after the administration) (Non Patent Literature 1). […] The mechanical sensitive phenomenon induced by PACAP was not suppressed in an example in which a solvent (VEH: 0.2% DMSO-containing artificial cerebrospinal fluid) was used instead of the compounds.
as §1

Assay [6] deals with pain-like behavior induced by formalin. The experiment in a line: Pain-like behavior induced by formalin. In kind it is in vivo, mouse. To be noted: 0.1 to 10 nmol i.t. On the procedure: The first phase is direct action of formalin on sensory nerves (to around 10 minutes after formalin administration). In the second phase (from around 10 minutes to 60 minutes after formalin administration), hypersensitization formed in spinal dorsal horn cells during the first phase (a type of plastic phenomenon in the nervous system also called central sensitization) is a main cause, and inflammatory reaction at the site of formalin administration contributes importantly.

Assay [7] relates to mechanical allodynia induced by spinal nerve injury. The assay can be described thus: Spinal nerve ligation (SNL) model, i.t. administration on 14th day, mechanical allodynia. In kind it is in vivo, mouse. To be noted: for anti-mechanical allodynia effect: 100 pmol i.t. on 14th day after operation. On the procedure: as §1
Spinal nerve ligation (SNL) models in which the fourth lumbar cord spinal nerves of male ddY (6 to 12 weeks old) were ligated with silk thread were used. The i.t. administration of a solvent (VEH: 10% DMSO-containing saline), PA-8, the compound 2j or the compound 2o (FIG. 9A), or PA-9 or the compound 3d (FIG. 9B) was performed on the 14th day after the operation. The method of causing a mechanical stimulus is the same as that of Example 5, and data were acquired for 24 hours after i.t. administration over time.

The subject of assay [8] is cold allodynia induced by oxaliplatin. The experiment in a line: Onset of cold allodynia induced by oxaliplatin, drug given around oxaliplatin administration. Particulars: 10 mg/kg oral. In kind it is in vivo, mouse. On the procedure:
Oxaliplatin was dissolved in 5% glucose-containing saline and intraperitoneally administered at a dose of 2 mg/kg. Drug administration (oral administration) was performed 30 minutes before oxaliplatin administration (FIG. 7A); or 3 times: 30 minutes before oxaliplatin administration, 2.5 hours after the administration, and 5.5 hours after the administration (FIG. 7B). Male ddY mice (6 to 12 weeks old) were used. The axis of ordinates is the duration of the behavior of licking and paw waving after the application of an acetone drop (10 μL) to the footpad of a hind paw.

The mark [9] stands for this setting: 30 minutes before oxaliplatin or 3 administrations.

In the case of `CCOc1cccc(C2CC(=O)Nc3nc(N)[nH]c(=O)c32)c1` (centres unmarked) [compound 2j, 2-Amino-5-(3-ethoxyphenyl)-5,8-dihydro-3H,6H-pyrido[2,3-d]pyrimidine-4,7-dione], the “suppression of the onset of mechanical allodynia” value in assay [1] is on record as “did not suppress the onset of mechanical allodynia”. For the same compound, the “effect on PACAP response compared with PA-8” value in assay [2] (10 pmol i.t., versus PA-8 10 pmol) is listed as “significantly stronger than that of PA-8 (10 pmol)”. Also, in assay [2] (10 pmol), the “suppression of PACAP-induced spontaneous pain-like behavior” value is listed as “suppressed the PACAP response significantly”. In addition, the “suppression of PACAP-induced spontaneous pain-like behavior” value in assay [2] (100 pmol) is listed as “suppressed the PACAP response significantly”. For the same compound, the “suppression of CREB phosphorylation by PACAP (1 nM)” value (“suppression of CREB phosphorylation” for short) in assay [3] is listed as “suppressed depending on the concentration”. Besides, the “suppression of cold allodynia by oxaliplatin” value in assay [4] was “suppressed cold allodynia by oxaliplatin significantly over 4 to 5 hours”. Moreover, the “suppression of long-term mechanical allodynia induced by PACAP” value in assay [5] (10 or 100 pmol, FIGS. 5A and B) is “strongly suppressed”. Also, in assay [6], the “effect on first phase reaction” value is “did not affect the first phase reaction” and the “effect on second phase reaction” value is reported as “did not affect the second phase reaction”. The anti-mechanical allodynia effect result in assay [7] is given as “suppressed the onset of mechanical allodynia significantly”. Moreover, the “maximum effect compared with compound 2o” value in assay [7] (100 pmol i.t., 3 hours after the administration) was “significantly inferior as compared with the compound 2o”. Further, the “suppression of the onset of cold allodynia by oxaliplatin” value in assay [8] (setting [9]) was “suppressed the onset of cold allodynia by oxaliplatin significantly”.

For the compound `Nc1nc2c(c(=O)[nH]1)C(c1cccc(OC(F)(F)F)c1)CC(=O)N2` (centres unmarked) [compound 2o, 2-Amino-5-(3-trifluoromethoxyphenyl)-5,8-dihydro-3H,6H-pyrido[2,3-d]pyrimidine-4,7-dione], in assay [1], the “suppression of the onset of mechanical allodynia” value is “suppressed the onset of mechanical allodynia still more strongly”. For the same compound, the “mechanical threshold level during administration” value in assay [1] (30 mg/kg i.p. once a day) is reported as “maintained the mechanical threshold at a level equivalent to an uninjured side”. Also, the “mechanical threshold after discontinuation of administration” value in assay [1] (30 mg/kg i.p., discontinued on the seventh day, versus VEH group) was “maintained the mechanical threshold highly significantly for at least 7 days thereafter”. In assay [2] (10 pmol), the “suppression of PACAP-induced spontaneous pain-like behavior” value is recorded as “did not exhibit a significant suppressing effect”. For the same compound, the “suppression of PACAP-induced spontaneous pain-like behavior” value in assay [2] (100 pmol) was “suppressing effect equivalent to PA-8 and the compound 2j”. In assay [3], the “suppression of CREB phosphorylation” value is given as “suppressed CREB phosphorylation by PACAP (1 nM)” and the “effect of suppressing CREB phosphorylation compared with basic compound” value was “significantly stronger effect of suppressing CREB phosphorylation”. Besides, in assay [4], the “time of onset of effect on cold allodynia” value is “effective from an earlier period of time (the first hour after administration)” and the “suppression of cold allodynia by oxaliplatin” value is recorded as “suppressed cold allodynia by oxaliplatin significantly over 4 to 5 hours”. Also, the “suppression of long-term mechanical allodynia induced by PACAP” value in assay [5] (10 or 100 pmol, FIGS. 5A and B) is “strongly suppressed”. In addition, in assay [6], the “effect on first phase reaction” value is “did not affect the first phase reaction” and the “effect on second phase reaction” value is recorded as “suppressed the second phase reaction significantly depending on the concentration”. For the same compound, in assay [7], the anti-mechanical allodynia effect entry is “suppressed the onset of mechanical allodynia significantly”. Further, the “suppression of the onset of cold allodynia by oxaliplatin” value in assay [8] (setting [9]) is “suppressed the onset of cold allodynia by oxaliplatin significantly”. Moreover, the “suppression of the onset of cold allodynia by oxaliplatin” value in assay [8] (three administrations (FIG. 7B)) is reported as “suppressed the onset almost completely”.

As for `O=C(NCCc1c[nH]cn1)C1CC(=O)N(c2n[nH]c3c(Cl)cccc23)C1` (centres unmarked) [compound 3d, N-[2-(1H-imidazol-4-yl)ethyl]-1-(7-chloro-1H-indazol-3-yl)-5-oxo-3-pyrrolidinecarboxamide], in assay [3], the “suppression of CREB phosphorylation” value is “suppressed CREB phosphorylation by PACAP (1 nM) depending on the concentration” and the “effect of suppressing CREB phosphorylation compared with basic compound” value is listed as “significantly stronger effect of suppressing CREB phosphorylation”. Also, the “suppression of long-term mechanical allodynia induced by PACAP” value in assay [5] (100 pmol, FIG. 5C) is reported as “strongly suppressed”. Also, in assay [7] (100 pmol i.t.), the “mechanical threshold 24 hours after the administration” value was “maintained the mechanical threshold highly significantly”. For the same compound, the anti-mechanical allodynia effect entry in assay [7] is “anti-mechanical allodynia effect equivalent to PA-8 and the compound 2j”.
